Experimental data reported in patent EP1351977B1, “ANTIMICROBIAL PSEUDOPEPTIDES” (INSTITUT NATIONAL DE LA RECHERCHE AGRONOMIQUE (INRA), priority 2001, dated 2004).
Where two headings read alike, the source gives them in different places. Ends that are not written are not given here.

Experiments:
Type in all cases: cell-based
Alternaria brassicae = test: Antifungal growth inhibition test in liquid medium
Rhizoctonia solani myc = test: Antifungal growth inhibition test in liquid medium
Piricularia oryzae sp = system: Piricularia oryzae sp
Enterobacter aerogenes = test: Bacterial growth inhibition test in microplates (liquid medium), MIC, nosocomial bacteria; details: microplate test, TSB, 24h; nosocomial strain
Protocol: (§1) Deux tests ont été utilisés pour mesurer l'activité antibactérienne des pseudopeptides, un test d'inhibition de la croissance bactérienne en microplaques (de 96 puits) en milieu liquide et un test d'inhibition de la croissance bactérienne en boîte de Pétri en milieu solide. • * Test en microplaques: La culture bactérienne à tester est prélevée en phase exponentielle, puis diluée au 1/500^ème dans du milieu liquide TSB frais. Chaque puits de la microplaque est rempli avec 100 µl de suspension bactérienne diluée. Dans le premier puits, 100 µl de l'échantillon de pseudopeptide à tester est ajouté à la suspension bactérienne, puis l'échantillon est dilué de 2 en 2 en transférant d'un puits à l'autre 100 µl de suspension. La lecture de la microplaque se fait en mesurant la densité optique à […] (DO600nm) après 24h d'incubation à 28°C ou 37°C selon les bactéries cibles. Connaissant la concentration en pseudopeptide de l'échantillon de départ, ce test permet de déterminer la valeur de la CMI (Concentration Minimale d'Inhibition de la croissance bactérienne). Dans ce test, la CMI correspond à la concentration de l'échantillon pour lequel la DO600nm est inférieure à celle du témoin de culture. • * Test en boîte de Pétri: La culture bactérienne à tester est prélevée en phase exponentielle, puis incorporée à 10 ml d'une gélose dite "sous-couche" (Agarose 1% poids/vol; NaCl 100 mM; Trypcase 0.03 % poids/vol; Tampon phosphate 10 mM pH7.4) à raison de 2.10^5 bactéries/ml. Le mélange est coulé dans une boîte de Pétri ordinaire. 9 puits d'environ 10 µl de volume sont formés dans la "sous-couche" à l'aide d'un embout de pipette stérile de 10 ml. Ces puits sont remplis avec une série de dilutions des pseudopeptides à tester (concentration initiale 500 µg/ml, et dilution de deux en deux jusqu'à 1,95 µg/ml). Après diffusion à température ambiante pendant 2h, une gélose dite "sur-couche" (Agarose 1% wt/vol; Trypcase 6 % wt/vol; Tampon phosphate 10 mM pH7.4) est ajoutée sur la sous-couche à raison de 5 à 10 ml. Après solidification, l'ensemble est mis à incuber pendant une nuit. Le diamètre d'inhibition de la culture bactérienne autour de chaque puits est mesuré en mm; il existe une relation linéaire entre le diamètre d'inhibition et le log10 de la concentration en pseudopeptide qui permet de déterminer par extrapolation la valeur de la CMI.
(§2) Une seconde série de résultats a été obtenue en utilisant le test en microplaques vis-à-vis de bactéries nosocomiales issues de la collection du laboratoire de Bactériologie Médicale du Centre Hospitalier Universitaire de Nîmes (France). Dans cette série, seul le pseudopeptide contenu dans la fraction 8 a été testé (Tableau 5).

Enterococcus sp. = test: as above; details: microplate test, TSB, 24h; nosocomial strain
Protocol: as §1, §2

Pseudomonas aeruginosa = test: as above; details: microplate test, TSB, 24h; nosocomial strain
Protocol: as §1, §2

Staphylococcus aureus = test: as above; details: microplate test, TSB, 24h; nosocomial strain
Protocol: as §1, §2

[1] = system: Stenotrophomonas maltophilia; test: as above; details: microplate test, TSB, 24h; nosocomial strain
Protocol: as §1, §2

bactériophage lambda = test: Antiviral test, lysis plaque method in Top-Agar on E. coli SURE
Protocol: L'activité antivirale des pseudopeptides selon l'invention a été démontrée vis-à-vis du bactériophage lambda. Le bactériophage λ-ZAP est naturellement lytique sur la souche E. coli SURE (Stratagène). Cette activité lytique est mesurable par la méthode des plages de lyse en gélose Top-Agar. 2 µl d'une suspension de virus à 3,5 .10^5 pfu/ml dans du tampon SM ont été mis en présence de 2 µl du pseudopeptides compris dans le pic 8 à 0,5 mg/ml dans de l'eau pure. Après 15 min d'incubation à 37°C, la suspension est mélangée à 3,5 ml de Top-Agar pré-ensemencée avec E. coli SURE à 2 .10^5 cfu/ml. La concentration de pseudopeptide dans la gélose Top-Agar est inférieure à la CMI vis-à-vis de E. coli SURE. Le mélange est coulé en boîte de Pétri puis mis à incuber à 37°C pendant 12h. Le résultat est donné dans le tableau 6.

In the case of “Composé 8: pseudopeptide du pic n° 8 de Xenorhabdus nematophilus F1; Famille 1: Lys Lys Lys Lys Lys Gly; 1066 Da; structure en Figure 2 (KKKKKG; also: pseudopeptide modifications)”, the “pourcentage d'inhibition de croissance” value (Alternaria brassicae; 10 ppm) is reported as 82%, the “pourcentage d'inhibition de croissance” value (Alternaria brassicae; 20 ppm) is reported as 82% and the “pourcentage d'inhibition de croissance” value (Alternaria brassicae; 40 ppm) is reported as 83%. The “pourcentage d'inhibition de croissance” value (Rhizoctonia solani myc; 10 ppm) was 56%, the “pourcentage d'inhibition de croissance” value (Rhizoctonia solani myc; 20 ppm) was 91% and the “pourcentage d'inhibition de croissance” value (Rhizoctonia solani myc; 40 ppm) was 93%. The “pourcentage d'inhibition de croissance” value (Piricularia oryzae sp; 10 ppm) was 30%, the “pourcentage d'inhibition de croissance” value (Piricularia oryzae sp; 20 ppm) was 35% and the “pourcentage d'inhibition de croissance” value (Piricularia oryzae sp; 40 ppm) was 45%. The CMI (Enterobacter aerogenes) was 25 µg/mL, the CMI (Enterococcus sp.) was 12,5 µg/ml and the CMI (Pseudomonas aeruginosa) was 12,5 µg/ml. The CMI (Staphylococcus aureus) was 25 µg/mL, the CMI [1] was 25 µg/mL and the “inhibition du cycle lytique du bactériophage lambda” value (bactériophage lambda; 250 µg/ml) was over 95%. The “Nbre de pfu/boîte” value (bactériophage lambda; in presence of pseudopeptide, 15 min pre-incubation at 37°C with phage, control without pseudopeptide 700 ±50) was 40 ± 5 pfu/boîte.
